Test results published in patent US4369120A, “Refrigeration liquid with leak indicator and process of using same” (priority 1981, dated 1983).
“Also recorded” adds a separate entry of the source.

Experiments:
[1] = 400° F. (204.4° C.), reported in U.S. Pat. No. 3,770,640; cited from earlier work
[2] = Sealed tube test of stability of dyes in refrigerant/refrigeration oil with metal coupons; assay type: physicochemical; details: for Stability, Mean Life: Table I, sealed tube data in R-12 at 350° F.; for stability as measured by the sealed tube test: text summary of Table I, 350° F.
Method: By reference to Table I below it can be appreciated that such ortho substitution has a remarkably beneficial effect on the stability of the dyes in the accelerated sealed tube test used for evaluation. The first three dyes listed, embodying the principles of this invention, routinely withstand in excess of twenty days in the sealed tube test at 350° F. (176.7° C.), equivalent to many years of normal use in a refrigeration system.
The sealed tube test serves as a method of evaluating in an accelerated manner interactions of materials found in a refrigeration system.
Glass tubes and all metal test coupons are scrupulously cleaned. Test refrigerants are distilled to minimize moisture contamination. Moisture is removed from the refrigeration test oil "Suniso" 3GS by subjecting the oil to a vacuum with slight stirring and heating. Ratios of refrigerant/refrigerant oil range from 1:1 to 1:2 by weight.
Refrigerant oil and representative metal coupons of copper #10AWG wire, Swedish valve stock steel, and aluminum metal sheet are placed in a glass tube along with the subject test dye material (0.25-1.0% wt/wt) dissolved in the refrigerant oil. Like samples without the subject dye are analyzed as controls.
The tube and its contents are chilled in a liquid nitrogen bath while the refrigerant is condensed into the tube via a calibrated manometer. The tube is sealed under a vacuum of at least 0.1 torr.
Glass tubes and contents are subjected to uniform heating in a bored aluminum block placed in a temperature-programmed oven.
The oven temperatures used vary according to the test refrigerant, as indicated:
The test is run for one of the following time periods: 5, 14, 21, 30 or 60 days.
The tube contents may be evaluated by several methods:
of these methods, the visual examination is the most rapid and the only qualitative method. Any color change in the subject dye coloration is noted when compared to a control sample.
The quantitative methods involve analysis for decomposition products of chloride as hydrochloric acid or organic products by gas chromatography, infrared spectroscopy, or mass spectroscopy. However, visual inspection and gas chromatography are widely used, and they were selected as standardization procedures for evaluation of sealed tube contents.
R-12 is chemically one of the more reactive refrigerants; thus, short term tests with refrigeration liquids containing this refrigerant admixed with a mineral oil yield the most rapid results. R-22 and R-502 are also used but the decomposition products are more difficult to analyze by gas chromatography. Ultimately the test material must pass interactions involving any of these refrigerants. The visual method can be used empirically on a pass-fail basis. As verified experimentally, visual results are considered as valid as instrumental methods.

[3] = Solubility of dyes in refrigeration oils; details: for Oil Sol. In 3GS: Table I, Suniso 3GS refrigeration oil
Method: Manufacturers of refrigeration equipment generally demand that any refrigeration liquid satisfactorily pass such a sealed tube test before they approve the liquid for use in their equipment. In addition, the solubility of the various dyes in oil and in refrigerant were determined.
Solubility of various dyes in various refrigeration oils was carefully determined according to the following standardized procedure. An excess of the subject dye was added to a given weight (e.g., 100 g) of refrigerant oil. The mixture was stirred for one-half hour with mild heating, whereupon it was cooled to room temperature (about 21° C.) and transferred to a centrifuge tube. The mixture was centrifuged approximately 15 minutes at 1000 rpm. A sample of the supernatant liquid was decanted (1.00 g±0.01 g) and diluted to 100 ml volume with methylene chloride. Aliquot portions were taken and read against the principal absorption peaks by visible light spectroscopy. Wt/wt percentage concentrations were then calculated from proper standard curves.

[4] = Solubility of dyes in halocarbon refrigerants; assay type: physicochemical; details: for Refr. Sol. In R-12: Table I, refrigerant R-12
Method: Solubilities of various dyes in various halocarbon refrigerants were also determined according to the following standardized procedure. […] The R-11 was allowed to vaporize, leaving a known amount of dye in the bottom portion of the test tube. The tube was then attached to a charging apparatus containing a supply of a given halocarbon refrigerant and various amounts of the refrigerant were charged into the tube while chilling the latter by immersion in liquid nitrogen. The tube containing the dye/refrigerant mixture was sealed under vacuum, allowed to reach room temperature (about 21° C.) and rotated for several hours. Visual inspection of the tube was made at several temperatures to note the degree of dissolution. The procedure was improved over previously used methods in that an exact predetermined amount of dye and refrigerant were made to interact, requiring fewer weighings. Finally, it became possible to use the same tube to check solubility at several different temperatures.

| SMILES | stability in the sealed tube test at 400° F. (in words) [1] | Stability, Mean Life [2] | stability as measured by the sealed tube test [2] | solubility in the refrigeration oil (in words) [3] | Oil Sol. In 3GS [3] | solubility in the halocarbon refrigerant (in words) [4] | Solubility in refrigerant ([4]; R-12, 21° C.) | Solubility in refrigerant ([4]; R-22, 21° C.) | Solubility in refrigerant ([4]; R-502, 21° C.) | Refr. Sol. In R-12 [4] |
| --- | --- | --- | --- | --- | --- | --- | --- | --- | --- | --- |
| CCc1cc(CC)c(Nc2ccc(Nc3c(CC)cc(CC)cc3CC)c3c2C(=O)c2ccccc2C3=O)c(CC)c1 [1,4-bis(2,4,6-triethylanilino)anthraquinone] | very unstable; also recorded: so poor as to make this dye commercially unacceptable |  |  |  |  |  |  |  |  |  |
| Cc1cccc(C)c1Nc1ccc(Nc2c(C)cccc2C)c2c1C(=O)c1ccccc1C2=O [Dye No. 2-31, 1,4-Bis(2,6-dimethylanilino)-anthraquinone] |  | 22.4 days | > 20 days | relatively high solubility | 0.1% | sufficient solubility | < 0.02 %(wt/wt) | 0.04 %(wt/wt) | < 0.02 %(wt/wt) | < 0.1% |
| Cc1cc(C)c(Nc2ccc(Nc3c(C)cc(C)cc3C)c3c2C(=O)c2ccccc2C3=O)c(C)c1 [Dye No. 3-25, 1,4-Bis(mesidino)anthraquinone] |  | 24.3 days | > 20 days | relatively high solubility | 0.55% | sufficient solubility |  |  |  | < 0.1% |
